Reference: article PMC10974275, “Pharmacokinetic Interaction of Kratom and Cannabidiol in Male Rats” (Pharmaceutics, 2024)
Where two headings read alike, the source gives them in different places.

Columns and labels:
[1] = Single-dose pharmacokinetics of concomitant cannabidiol product and kratom product; format: in vivo, male Sprague-Dawley rats; details: for AUC(0-t): read-out: AUC0–24; for AUC0–∞/dose / CL/F / Vd/F: Single-Dose; for AUC0–∞/dose: dose-normalized; for CL/F / Vd/F: plasma; for CL/F: read-out: CL/F (apparent oral clearance) (converted); for Vd/F: read-out: V/F (apparent volume of distribution)
Method: (§1) Male Sprague-Dawley rats (weight 250 ± 25 g) were obtained from Envigo (Indianapolis, IN, USA) with indwelling jugular vein catheters. Animals were acclimated for ≥72 h in a temperature- and humidity-controlled vivarium on a 12 h light/dark cycle. All studies were approved by the University of Florida’s Institutional Animal Care and Use Committee (IACUC) and carried out in accordance with Association for Assessment and Accreditation of Laboratory Animal Care International (AAALAC) and National Institute of Health (NIH) guidelines. In the single-dose studies, rats were fasted for 10 h prior to dosing and an additional 2 h post-dose.
(§2) For the single-dose study, rats were pretreated with 50 mg/kg cannabidiol by oral gavage and, after 30 min, were dosed with 0.8 mL/kg OPMS Gold solution. A period of 30 min was observed between doses to reduce the likelihood of interactions between the formulations in the stomach. Rats were connected to an automatic blood collection system (BASi, West Lafayette, IN, USA), and blood samples were taken pre-kratom product dose and 0.08, 0.17, 0.25, 0.5, 1, 2, 3, 4, 6, 8, 12, 18, 24, 30, 36, 42, and 48 h after kratom product dose administration. For the multiple-dose study, rats were pretreated with 25 mg/kg cannabidiol and, after 30 min, were dosed with 0.4 mL/kg OPMS Gold solution every 12 h (0900 and 2100) for a period of 4 days. Blood samples were taken prior to the 0900 dose (24, 48, 72, 96 h). […] Plasma was separated from blood by centrifugation at 850× g for 10 min at 4 °C. Samples were stored at −20 °C until analysis.
(§3) Standards were prepared by adding 2.0 μL of CS or QC stock to 18 μL of blank rat plasma. This generated eight calibration standards (5–500 ng/mL) and four QC standards (5, 8, 200, and 400 ng/mL). After spiking, the standards were vortex-mixed for 5 min at 650 rpm. Analytes were precipitated with 80 μL methanol acidified with 0.05% formic acid containing 25 ng/mL IS-1 and IS-2 (Quenching Solution; QS). Samples were transferred to a 96-well filter plate and centrifuged at 850× g for 2 min at 4 °C. Study samples were prepared in the same manner by aliquoting 20 μL and adding 80 μL QS prior to vortex mixing and filtration.
(§4) Samples were analyzed using previously validated ultraperformance liquid chromatography-tandem mass spectrometry (UPLC-MS/MS) methods for the quantification of cannabinoids and alkaloids in rat plasma. Both methods used a Waters Acquity I-Class UPLC coupled to a Xevo TQ-S micro mass spectrometer (Waters, Milford, MA, USA). The source gas was nitrogen, and the collision gas was argon. The autosampler was maintained at 10 °C.
(§5) For the cannabinoid bioanalytical method, a 1.7 µm, 2.1 x 100 mm C18 BEH column was utilized with a pre-column of the same chemistry (Waters, Milford, MA, USA) held at 40 °C. […] Cannabidiol was detected in positive electrospray ionization mode using multiple reaction monitoring.
(§6) For the peak separations of kratom alkaloids required for quantification, a 1.7 µm, […] × 100 mm C18 BEH column with a pre-column of the same chemistry (Waters, Milford, MA, USA) was utilized and held at 50 °C throughout the analysis. A gradient elution was used with mobile phase of aqueous ammonium acetate buffer [2.5 mM, pH 3.5 (A)] and acetonitrile (B). The gradient was held at 90% A for 1 min and decreased to 60% by 10 min. From 10 to 10.5 min, the percent of A was decreased sharply to 30% and was then set to initial conditions from 10.5 to 11 min to re-equilibrate the column. The alkaloids were detected in positive electrospray ionization mode using multiple reaction monitoring.
The TargetLynx™ application of MassLynx™ was used for data processing and quantification of the UPLC-MS/MS data (Waters, Milford, MA, USA). Phoenix Version 6.4 (Certara, Princeton, NJ, USA) was used to perform a non-compartmental analysis of concentration–time data. GraphPad Prism Version 8 (GraphPad Software, San Diego, CA, USA) was used to generate all figures. […]

[2] = set-up: method as in PMID 33620222; details: n = 4, mean ± SEM, cited from earlier work
[3] = Single oral dose pharmacokinetics of kratom product alone (control data from Kamble et al.); details: without cannabidiol
[4] = Multiple-dose (steady-state) pharmacokinetics of concomitant cannabidiol and kratom product; format: in vivo, male Sprague-Dawley rats; details: mean ± SEM; for Accumulation Index / Fluctuation / concentration at 5 days / AUC(0-inf) / AUC / Cmax at 5 days: 5-day q12 h oral 25 mg/kg cannabidiol and kratom product (Eq. 4.7 mg/kg mitragynine); for AUC0–∞/dose / CL/F at 5 days / Vd/F at 5 days: Multiple-Dose; for AUC0–∞/dose: dose-normalized; for concentration at 5 days / CL/F at 5 days / Vd/F at 5 days / AUC(0-inf) / AUC / Cmax at 5 days: male, Sprague-Dawley, rat; for concentration at 5 days / CL/F at 5 days / Vd/F at 5 days / AUC(0-inf) / AUC: plasma; for concentration at 5 days: oral; for CL/F at 5 days / Vd/F at 5 days: po; for CL/F at 5 days: read-out: CL/F (apparent oral clearance) (converted); for Vd/F at 5 days: read-out: V/F (apparent volume of distribution); for AUC(0-inf): from time 0 (96 h) extrapolated to infinity; for AUC: over the dosing interval (12 h); for Cmax at 5 days: maximum plasma concentration at steady-state
Method: as §1, §2, §3, §4, §5, §6
The TargetLynx™ application of MassLynx™ was used for data processing and quantification of the UPLC-MS/MS data (Waters, Milford, MA, USA). Phoenix Version 6.4 (Certara, Princeton, NJ, USA) was used to perform a non-compartmental analysis of concentration–time data. GraphPad Prism Version 8 (GraphPad Software, San Diego, CA, USA) was used to generate all figures.

[5] = Single oral dose pharmacokinetics of cannabidiol product alone; format: in vivo, male Sprague-Dawley rats; details: male, Sprague-Dawley, rat, cannabidiol in plasma, single oral dose of cannabidiol product alone (50 mg/kg), n = 4, mean ± SEM
[6] = male, Sprague-Dawley, rat, po, minor kratom alkaloid/metabolite in plasma, single concomitant dose of cannabidiol and kratom product, n = 5, mean ± SEM
[7] = male, Sprague-Dawley, rat, po, minor kratom alkaloid/metabolite in plasma, single concomitant dose of cannabidiol and kratom product, n = 5, mean ± SEM, read-out: Cmax
[8] = minor kratom alkaloid/metabolite in plasma, single oral dose of kratom product alone
[9] = minor kratom alkaloid/metabolite in plasma, single concomitant dose of cannabidiol and kratom product, n = 5, mean ± SEM
[10] = average plasma concentration at steady-state, read-out: Cavg,ss
[11] = minimum plasma concentration at steady-state, read-out: Cmin,ss
[12] = cannabidiol, cannabidiol plus kratom product vs cannabidiol product alone, single dose
[13] = male, Sprague-Dawley, rat, po, mean ± SEM
[14] = male, Sprague-Dawley, rat, cannabidiol in plasma, single concomitant oral dose of cannabidiol product (50 mg/kg) and kratom product (9.4 mg/kg mitragynine), n = 5, mean ± SEM
[15] = male, Sprague-Dawley, rat, mitragynine in plasma, single concomitant oral dose of cannabidiol product (50 mg/kg) and kratom product (9.4 mg/kg mitragynine), n = 5, mean ± SEM
[16] = mitragynine in plasma, single oral dose of kratom product alone (9.6 mg/kg mitragynine)

Row | Compound | Tmax [1, 6] [h] | AUC(0-t) [1, 6] [ng·h/mL] | Cmax [1, 7] [ng/mL] | Cmax [2, 8] [ng/mL] | Tmax [2, 8] [h] | AUC0–24 [2, 8] [ng·h/mL] | Accumulation Index [4] | Fluctuation [4] [%] | AUC0–∞/dose [4] [ng·h/mL/mg/kg] | concentration at 5 days [4, 10] [ng/mL] | concentration at 5 days [4, 11] [ng/mL] | CL/F at 5 days [4] [mL/min/kg] | Vd/F at 5 days [4] [L/kg] | AUC(0-inf) [4] [ng·h/mL] | AUC [4] [ng·h/mL] | Cmax at 5 days [4] [ng/mL] | AUC0–∞/dose ([1]; mean ± SEM) [ng·h/mL/mg/kg] | CL/F [1, 13] [mL/min/kg] | Vd/F [1, 13] [L/kg] | also measured
1 | C=C[C@H]1CN2CCc3c([nH]c4cccc(OC)c34)[C@@H]2C[C@@H]1/C(=C\OC)C(=O)OC [Paynantheine, paynantheine] | 16.2 ± 4.9 | 290 ± 96.4 | 19.8 ± 5.8 | 3.0 ± 1.7 | 0.08 ± 0.0 | – | – | – | – | – | – | – | – | – | – | – | – | – | – | –
2 | CC[C@@H]1CN2CCc3c([nH]c4cccc(OC)c34)[C@H]2C[C@@H]1/C(=C\OC)C(=O)OC [Speciociliatine, speciociliatine] | 17 ± 5.9 | 990 ± 93.7 | 68.1 ± 5.9 | 23.8 ± 1.4 | 3.2 ± 1.6 | 222.7 ± 22.2 | – | – | – | – | – | – | – | – | – | – | – | – | – | –
3 | CC[C@@H]1CN2CC[C@@]3(O)C(=Nc4cccc(OC)c43)[C@@H]2C[C@@H]1/C(=C\OC)C(=O)OC [7-hydroxymitragynine] | – | – | – | 4.0 ± 0.6 | 3.1 ± 1.7 | 41.0 ± 7.6 | – | – | – | – | – | – | – | – | – | – | – | – | – | metabolite to parent (mitragynine) exposure ratio percent [3]: 3.1%; AUC0–24 [1, 9]: 189.2 ± 27.7 ng·h/mL; Cmax [1, 9]: 17.5 ± 2.3 ng/mL; metabolite to parent (mitragynine) exposure ratio percent ([1]; with cannabidiol, single concomitant dose of cannabidiol and kratom product): 3.5%
4 | C=C(C)[C@@H]1CCC(C)=C[C@H]1c1c(O)cc(CCCCC)cc1O [Cannabidiol] | – | – | – | – | – | – | 1.8 ± 0.0 | 219.0 ± 42.7 | 140.8 ± 34.0 | 204 ± 51.3 | 80.9 ± 23.7 | 217 | 192 ± 42.1 | 3520 ± 851 | 2450 ± 615 | 489 ± 96.2 | 97.8 ± 18.5 | 192 | 164 ± 26.3 | AUC0–24 Fold Change (90% CI Ratio) [1, 12]: 1.0 (0.8, 1.1); Cmax Fold Change (90% CI Ratio) [1, 12]: 0.8 (0.7, 0.9); range of 90% confidence interval values of AUC0–24 fold change ([1]; cannabidiol, coadministration with kratom vs cannabidiol alone, single dose): 0.8–1.1; Tmax [1, 14]: 6.3 ± 1 h; AUC(0-t) [1, 14]: 4180 ± 614 ng·h/mL; Cmax ([1]; male, Sprague-Dawley, rat, cannabidiol in plasma, single concomitant oral dose of cannabidiol product (50 mg/kg) and kratom product (9.4 mg/kg mitragynine), n = 5, mean ± SEM, read-out: Cmax): 491 ± 69.2 ng/mL; Cmax [5]: 589 ± 38.3 ng/mL; Tmax [5]: 3.8 ± 1.5 h; AUC(0-t) ([5]; read-out: AUC0–24): 4400 ± 319 ng·h/mL
5 | CC[C@@H]1CN2CCc3c([nH]c4cccc(OC)c34)[C@@H]2C[C@@H]1/C(=C\OC)C(=O)OC [Mitragynine, mitragynine] | – | – | – | – | – | – | 1.4 ± 0.1 | 90.0 ± 11.3 | 605.8 ± 153.1 | 151 ± 34.7 | 91.1 ± 24.9 | 51.7 | 28.7 ± 3.7 | 2910 ± 735 | 1810 ± 417 | 218 ± 40 | 578.6 ± 187.9 | 38.3 | 25.8 ± 7.5 | Fluctuation ([4]; listed as mitragynine): ~100%; Tmax [1, 15]: 17 ± 4.6 h; AUC(0-t) [1, 15]: 5350 ± 1150 ng·h/mL; Cmax ([1]; male, Sprague-Dawley, rat, mitragynine in plasma, single concomitant oral dose of cannabidiol product (50 mg/kg) and kratom product (9.4 mg/kg mitragynine), n = 5, mean ± SEM, read-out: Cmax): 253 ± 68.3 ng/mL; AUC0–24 [2, 16]: 1306.8 ± 126.1 ng·h/mL; Cmax [2, 16]: 111.9 ± 15.6 ng/mL; Tmax [2, 16]: 3.1 ± 1.7 h
